According to PMC3399817 (PLoS ONE, 2012):

Experiments:
Assay in all cases: KINOMEscan
Type in all cases: binding
[1] = target: T1, AKT2 (Homo sapiens, UniProt P31751); settings: AKT2, 1 uM
T1 construct: purchased Ambit KINOMEscan (DiscoverX)
Method in brief: (§1)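 A binding-competition profile was run with every compound fixed at 1 μM; hits were kinases showing inhibited substrate binding.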

[2] = target: T2, PYK2 (Homo sapiens, UniProt Q14289); settings: PYK2, 1 uM
T2 construct: purchased Ambit KINOMEscan (DiscoverX)
Method in brief: as §1

[3] = target: T3, PRKG1 (Homo sapiens, UniProt Q13976); settings: PRKG1, 1 uM
T3 construct: purchased Ambit KINOMEscan (DiscoverX)
Method in brief: as §1

[4] = target: T4, MAP4K3 (Homo sapiens, UniProt Q8IVH8); settings: MAP4K3, 1 uM
T4 construct: purchased Ambit KINOMEscan (DiscoverX)
Method in brief: as §1

[5] = target: T5, DRAK2 (Homo sapiens, UniProt O94768); settings: DRAK2, 1 uM
T5 construct: purchased Ambit KINOMEscan (DiscoverX)
Method in brief: as §1

[6] = target: T6, MYLK (Homo sapiens, UniProt Q15746); settings: 1 uM
T6 construct: purchased Ambit KINOMEscan (DiscoverX)
Method in brief: as §1

[7] = target: T7, PRKD2 (Homo sapiens, UniProt Q9BZL6); settings: PRKD2, 1 uM
T7 construct: purchased Ambit KINOMEscan (DiscoverX)
Method in brief: as §1

[8] = target: T8, RAF1 (Homo sapiens, UniProt P04049); settings: RAF1, 1 uM
T8 construct: purchased Ambit KINOMEscan (DiscoverX)
Method in brief: as §1

[9] = target: T9, NEK5 (Homo sapiens, UniProt Q6P3R8); settings: NEK5, 1 uM
T9 construct: purchased Ambit KINOMEscan (DiscoverX)
Method in brief: as §1

[10] = target: T10, TAK1 (Homo sapiens, UniProt O43318); settings: TAK1, 1 uM
T10 construct: purchased Ambit KINOMEscan (DiscoverX)
Method in brief: as §1

[11] = target: T11, RIPK4 (Homo sapiens, UniProt P57078); settings: RIPK4, 1 uM
T11 construct: purchased Ambit KINOMEscan (DiscoverX)
Method in brief: as §1

[12] = target: T12, SNARK (Homo sapiens, UniProt Q9H093); settings: 1 uM
T12 construct: purchased Ambit KINOMEscan (DiscoverX)
Method in brief: as §1

[13] = target: T13, ABL1(H396P)-nonphosphorylated (Homo sapiens, UniProt P00519, H396P); settings: 1 uM
T13 construct: purchased Ambit KINOMEscan (DiscoverX)
Method in brief: as §1

[14] = target: T14, FYN (Homo sapiens, UniProt P06241); settings: 1 uM
T14 construct: purchased Ambit KINOMEscan (DiscoverX)
Method in brief: as §1

[15] = target: T15, FGFR3 (Homo sapiens, UniProt P22607); settings: FGFR3, 1 uM
T15 construct: purchased Ambit KINOMEscan (DiscoverX)
Method in brief: as §1

[16] = target: T16, CSK (Homo sapiens, UniProt P41240); settings: 1 uM
T16 construct: purchased Ambit KINOMEscan (DiscoverX)
Method in brief: as §1

[17] = target: T17, p38-beta (Homo sapiens, UniProt Q15759); settings: 1 uM
T17 construct: purchased Ambit KINOMEscan (DiscoverX)
Method in brief: as §1

[18] = target: T18, FAK (Homo sapiens, UniProt Q05397); settings: 1 uM
T18 construct: purchased Ambit KINOMEscan (DiscoverX)
Method in brief: as §1

[19] = target: T19, PRKD1 (Homo sapiens, UniProt Q15139); settings: PRKD1, 1 uM
T19 construct: purchased Ambit KINOMEscan (DiscoverX)
Method in brief: as §1

[20] = target: T20, AKT1 (Homo sapiens, UniProt P31749); settings: AKT1, 1 uM
T20 construct: purchased Ambit KINOMEscan (DiscoverX)
Method in brief: as §1

[21] = target: T21, GSK3B (Homo sapiens, UniProt P49841); settings: for % binding compared to no inhibitor control: GSK3B, 1 uM
T21 construct: purchased Ambit KINOMEscan (DiscoverX)
Method in brief: as §1

[22] = target: T22, TNIK (Homo sapiens, UniProt Q9UKE5); settings: 1 uM
T22 construct: purchased Ambit KINOMEscan (DiscoverX)
Method in brief: as §1

[23] = target: T23, BMPR2 (Homo sapiens, UniProt Q13873); settings: BMPR2, 1 uM
T23 construct: purchased Ambit KINOMEscan (DiscoverX)
Method in brief: as §1

[24] = target: T24, PIK3CA(E545K) (Homo sapiens, UniProt P42336, E545K); settings: 1 uM
T24 construct: purchased Ambit KINOMEscan (DiscoverX)
Method in brief: as §1

[25] = target: T25, ERK5 (Homo sapiens, UniProt Q13164); settings: ERK5, 1 uM
T25 construct: purchased Ambit KINOMEscan (DiscoverX)
Method in brief: as §1

[26] = target: T26, SgK110 (Homo sapiens, UniProt P0C264); settings: SgK110, 1 uM
T26 construct: purchased Ambit KINOMEscan (DiscoverX)
Method in brief: as §1

[27] = target: T27, ZAP70 (Homo sapiens, UniProt P43403); settings: ZAP70, 1 uM
T27 construct: purchased Ambit KINOMEscan (DiscoverX)
Method in brief: as §1

[28] = target: T28, KIT(V559D,V654A) (Homo sapiens, UniProt P10721, V559D/V654A); settings: 1 uM
T28 construct: purchased Ambit KINOMEscan (DiscoverX)
Method in brief: as §1

[29] = target: T29, INSR (Homo sapiens, UniProt P06213); settings: 1 uM
T29 construct: purchased Ambit KINOMEscan (DiscoverX)
Method in brief: as §1

[30] = target: T30, TYK2(JH1domain-catalytic) (Homo sapiens, UniProt P29597); settings: 1 uM
T30 construct: TYK2(JH1domain-catalytic); purchased Ambit KINOMEscan (DiscoverX)
Method in brief: as §1

[31] = target: T31, JAK2(JH1domain-catalytic) (Homo sapiens, UniProt O60674); settings: 1 uM
T31 construct: JAK2(JH1domain-catalytic); purchased Ambit KINOMEscan (DiscoverX)
Method in brief: as §1

[32] = target: T32, RPS6KA4(Kin.Dom.2-C-terminal) (Homo sapiens, UniProt O75676); settings: 1 uM
T32 construct: RPS6KA4(Kin.Dom.2-C-terminal); purchased Ambit KINOMEscan (DiscoverX)
Method in brief: as §1

[33] = target: T33, YSK4 (Homo sapiens, UniProt Q56UN5); settings: YSK4, 1 uM
T33 construct: purchased Ambit KINOMEscan (DiscoverX)
Method in brief: as §1

[34] = target: T34, STK16 (Homo sapiens, UniProt O75716); settings: STK16, 1 uM
T34 construct: purchased Ambit KINOMEscan (DiscoverX)
Method in brief: as §1

[35] = target: T35, DCAMKL3 (Homo sapiens, UniProt Q9C098); settings: DCAMKL3, 1 uM
T35 construct: purchased Ambit KINOMEscan (DiscoverX)
Method in brief: as §1

[36] = target: T36, PIK3C2B (Homo sapiens, UniProt O00750); settings: 1 uM
T36 construct: purchased Ambit KINOMEscan (DiscoverX)
Method in brief: as §1

[37] = target: T37, YSK1 (Homo sapiens, UniProt O00506); settings: YSK1, 1 uM
T37 construct: purchased Ambit KINOMEscan (DiscoverX)
Method in brief: as §1

[38] = target: T38, IKK-epsilon (Homo sapiens, UniProt Q14164); settings: 1 uM
T38 construct: purchased Ambit KINOMEscan (DiscoverX)
Method in brief: as §1

T21 sequence (P49841 whole entry): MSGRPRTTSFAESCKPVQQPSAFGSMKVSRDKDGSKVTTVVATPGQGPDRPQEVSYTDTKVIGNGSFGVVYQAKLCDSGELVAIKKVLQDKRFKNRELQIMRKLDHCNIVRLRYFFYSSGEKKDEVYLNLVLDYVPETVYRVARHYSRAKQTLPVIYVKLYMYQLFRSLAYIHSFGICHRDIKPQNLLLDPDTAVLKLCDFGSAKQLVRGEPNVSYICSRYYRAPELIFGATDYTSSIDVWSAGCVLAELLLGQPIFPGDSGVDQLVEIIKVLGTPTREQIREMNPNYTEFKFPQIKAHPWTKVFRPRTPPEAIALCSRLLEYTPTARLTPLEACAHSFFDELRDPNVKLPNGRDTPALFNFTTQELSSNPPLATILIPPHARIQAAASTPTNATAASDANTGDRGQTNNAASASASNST
T10 sequence (O43318 whole entry): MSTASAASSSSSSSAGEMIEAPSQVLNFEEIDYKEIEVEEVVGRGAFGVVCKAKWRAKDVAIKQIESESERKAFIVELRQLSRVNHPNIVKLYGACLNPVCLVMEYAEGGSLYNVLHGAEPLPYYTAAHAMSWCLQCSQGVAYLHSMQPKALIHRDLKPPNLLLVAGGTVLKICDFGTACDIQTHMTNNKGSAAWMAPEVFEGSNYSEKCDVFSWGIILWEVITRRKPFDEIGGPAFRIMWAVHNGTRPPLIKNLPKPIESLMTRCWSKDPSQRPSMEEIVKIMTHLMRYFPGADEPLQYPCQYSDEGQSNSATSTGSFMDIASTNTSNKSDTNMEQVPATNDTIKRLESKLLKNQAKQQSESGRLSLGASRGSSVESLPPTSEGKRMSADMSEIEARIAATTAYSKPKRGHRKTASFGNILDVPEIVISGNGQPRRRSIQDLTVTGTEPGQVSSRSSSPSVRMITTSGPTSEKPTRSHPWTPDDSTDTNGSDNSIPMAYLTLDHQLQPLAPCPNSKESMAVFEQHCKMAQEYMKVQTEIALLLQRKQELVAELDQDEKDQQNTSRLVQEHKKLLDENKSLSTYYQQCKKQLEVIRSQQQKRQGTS
T18 sequence (Q05397 whole entry): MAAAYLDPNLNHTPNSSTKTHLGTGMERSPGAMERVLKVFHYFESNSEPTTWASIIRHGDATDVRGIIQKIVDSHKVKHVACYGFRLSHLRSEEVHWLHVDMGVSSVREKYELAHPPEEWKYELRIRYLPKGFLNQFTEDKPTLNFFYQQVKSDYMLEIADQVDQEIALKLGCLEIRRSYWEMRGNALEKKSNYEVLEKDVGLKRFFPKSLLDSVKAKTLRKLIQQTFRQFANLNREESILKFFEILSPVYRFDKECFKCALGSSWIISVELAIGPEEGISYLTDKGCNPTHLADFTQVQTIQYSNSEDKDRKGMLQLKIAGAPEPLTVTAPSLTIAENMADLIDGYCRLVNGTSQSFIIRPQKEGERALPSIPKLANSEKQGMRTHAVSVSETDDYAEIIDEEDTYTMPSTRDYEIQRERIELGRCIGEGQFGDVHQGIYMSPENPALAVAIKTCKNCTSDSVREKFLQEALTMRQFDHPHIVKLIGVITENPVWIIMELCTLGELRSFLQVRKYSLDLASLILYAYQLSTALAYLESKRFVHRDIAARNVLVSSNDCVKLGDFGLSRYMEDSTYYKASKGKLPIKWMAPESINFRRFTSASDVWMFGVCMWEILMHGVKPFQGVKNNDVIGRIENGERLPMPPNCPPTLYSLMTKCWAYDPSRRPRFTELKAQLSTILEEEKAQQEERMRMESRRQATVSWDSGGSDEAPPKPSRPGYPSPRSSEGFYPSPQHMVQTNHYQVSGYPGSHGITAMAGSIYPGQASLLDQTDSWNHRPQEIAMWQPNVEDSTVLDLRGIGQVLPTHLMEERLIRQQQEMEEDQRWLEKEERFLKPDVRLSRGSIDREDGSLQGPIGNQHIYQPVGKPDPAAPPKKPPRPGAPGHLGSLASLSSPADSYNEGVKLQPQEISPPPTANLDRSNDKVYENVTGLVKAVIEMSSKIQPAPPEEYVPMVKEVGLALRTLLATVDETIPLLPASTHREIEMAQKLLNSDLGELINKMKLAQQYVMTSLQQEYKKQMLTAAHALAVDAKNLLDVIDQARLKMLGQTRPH
T33 sequence (Q56UN5 whole entry): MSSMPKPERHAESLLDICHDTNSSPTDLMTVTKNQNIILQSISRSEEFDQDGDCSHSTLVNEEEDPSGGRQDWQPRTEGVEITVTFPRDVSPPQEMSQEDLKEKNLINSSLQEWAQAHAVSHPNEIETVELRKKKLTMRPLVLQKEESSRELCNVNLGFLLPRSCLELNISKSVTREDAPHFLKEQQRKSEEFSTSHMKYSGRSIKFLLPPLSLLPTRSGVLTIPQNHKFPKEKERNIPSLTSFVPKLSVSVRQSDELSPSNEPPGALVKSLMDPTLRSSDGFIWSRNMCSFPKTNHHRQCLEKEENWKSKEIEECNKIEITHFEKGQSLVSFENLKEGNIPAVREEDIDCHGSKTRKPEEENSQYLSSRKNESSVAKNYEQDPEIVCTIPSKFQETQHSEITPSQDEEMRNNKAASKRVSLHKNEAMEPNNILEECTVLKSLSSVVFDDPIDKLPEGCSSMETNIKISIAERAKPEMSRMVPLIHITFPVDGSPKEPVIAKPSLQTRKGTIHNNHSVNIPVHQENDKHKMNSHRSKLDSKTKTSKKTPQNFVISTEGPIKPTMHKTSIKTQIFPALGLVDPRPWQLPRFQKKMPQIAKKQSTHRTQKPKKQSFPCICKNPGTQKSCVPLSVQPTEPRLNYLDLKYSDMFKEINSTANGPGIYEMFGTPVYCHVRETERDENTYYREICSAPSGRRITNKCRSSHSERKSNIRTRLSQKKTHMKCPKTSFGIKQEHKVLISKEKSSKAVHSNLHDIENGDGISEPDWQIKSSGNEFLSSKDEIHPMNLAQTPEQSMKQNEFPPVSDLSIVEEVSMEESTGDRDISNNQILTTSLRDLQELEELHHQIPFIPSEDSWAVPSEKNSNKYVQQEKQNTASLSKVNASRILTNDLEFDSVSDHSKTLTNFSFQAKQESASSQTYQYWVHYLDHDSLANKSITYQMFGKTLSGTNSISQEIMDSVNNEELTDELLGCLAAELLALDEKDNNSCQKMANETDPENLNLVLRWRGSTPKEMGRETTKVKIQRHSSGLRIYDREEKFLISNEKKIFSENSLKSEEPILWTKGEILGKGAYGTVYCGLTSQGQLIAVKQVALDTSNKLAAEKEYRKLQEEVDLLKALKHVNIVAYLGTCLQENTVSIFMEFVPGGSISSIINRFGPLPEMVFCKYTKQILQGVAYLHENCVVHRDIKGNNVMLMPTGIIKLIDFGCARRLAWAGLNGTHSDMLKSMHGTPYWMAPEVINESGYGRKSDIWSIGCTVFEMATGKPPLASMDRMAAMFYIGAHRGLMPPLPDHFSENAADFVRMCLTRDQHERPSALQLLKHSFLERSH
T12 sequence (Q9H093 whole entry): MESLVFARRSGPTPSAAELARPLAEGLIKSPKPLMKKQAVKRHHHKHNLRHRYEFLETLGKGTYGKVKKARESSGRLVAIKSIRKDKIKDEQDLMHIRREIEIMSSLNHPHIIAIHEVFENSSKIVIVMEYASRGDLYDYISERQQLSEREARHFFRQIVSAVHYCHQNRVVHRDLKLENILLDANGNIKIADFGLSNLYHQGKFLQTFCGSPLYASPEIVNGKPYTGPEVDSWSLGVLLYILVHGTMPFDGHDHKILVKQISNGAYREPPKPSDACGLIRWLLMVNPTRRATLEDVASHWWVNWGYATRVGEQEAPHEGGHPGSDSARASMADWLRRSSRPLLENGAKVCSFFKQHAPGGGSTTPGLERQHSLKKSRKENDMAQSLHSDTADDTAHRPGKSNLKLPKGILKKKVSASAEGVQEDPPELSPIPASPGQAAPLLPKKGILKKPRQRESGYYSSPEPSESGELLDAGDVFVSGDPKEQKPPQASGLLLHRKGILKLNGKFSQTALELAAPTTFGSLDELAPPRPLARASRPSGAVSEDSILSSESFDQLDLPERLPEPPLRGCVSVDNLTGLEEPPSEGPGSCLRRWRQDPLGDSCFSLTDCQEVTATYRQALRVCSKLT
T34 sequence (O75716 whole entry): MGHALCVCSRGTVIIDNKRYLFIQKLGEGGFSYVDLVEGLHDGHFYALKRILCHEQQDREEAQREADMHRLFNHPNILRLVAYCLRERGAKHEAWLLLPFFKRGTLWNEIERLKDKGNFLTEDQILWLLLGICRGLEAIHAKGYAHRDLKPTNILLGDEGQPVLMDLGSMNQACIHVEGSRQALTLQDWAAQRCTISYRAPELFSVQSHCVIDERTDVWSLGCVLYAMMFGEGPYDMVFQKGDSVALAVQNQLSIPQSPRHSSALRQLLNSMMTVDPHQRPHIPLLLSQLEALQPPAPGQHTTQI
T14 sequence (P06241 whole entry): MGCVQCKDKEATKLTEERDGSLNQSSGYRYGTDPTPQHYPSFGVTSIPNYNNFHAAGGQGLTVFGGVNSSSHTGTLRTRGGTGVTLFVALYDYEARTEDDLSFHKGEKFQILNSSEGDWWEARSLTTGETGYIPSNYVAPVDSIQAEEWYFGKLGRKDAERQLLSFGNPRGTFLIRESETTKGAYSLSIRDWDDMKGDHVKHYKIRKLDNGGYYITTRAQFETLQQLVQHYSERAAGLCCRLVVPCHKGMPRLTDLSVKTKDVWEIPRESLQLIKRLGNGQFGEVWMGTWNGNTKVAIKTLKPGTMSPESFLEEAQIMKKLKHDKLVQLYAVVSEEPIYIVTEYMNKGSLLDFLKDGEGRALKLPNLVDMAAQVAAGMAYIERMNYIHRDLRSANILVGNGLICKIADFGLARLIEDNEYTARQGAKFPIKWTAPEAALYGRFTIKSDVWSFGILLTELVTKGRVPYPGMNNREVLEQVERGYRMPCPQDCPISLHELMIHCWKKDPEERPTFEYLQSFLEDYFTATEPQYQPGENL

| SMILES | % binding compared to no inhibitor control [1] | % binding compared to no inhibitor control [2] | % binding compared to no inhibitor control [3] | % binding compared to no inhibitor control [4] | % binding compared to no inhibitor control [5] | % binding compared to no inhibitor control [6] | % binding compared to no inhibitor control [7] | % binding compared to no inhibitor control [8] | % binding compared to no inhibitor control [9] | % binding compared to no inhibitor control [10] | % binding compared to no inhibitor control [11] | % binding compared to no inhibitor control [12] | % binding compared to no inhibitor control [13] | % binding compared to no inhibitor control [14] | % binding compared to no inhibitor control [15] | % binding compared to no inhibitor control [16] | % binding compared to no inhibitor control [17] | % binding compared to no inhibitor control [18] | % binding compared to no inhibitor control [19] | % binding compared to no inhibitor control [20] | other results |
| --- | --- | --- | --- | --- | --- | --- | --- | --- | --- | --- | --- | --- | --- | --- | --- | --- | --- | --- | --- | --- | --- |
| COc1ccccc1Nc1nc(-c2ccc(OC)c(OC)c2)cc2nccn12 [BAY derivative 6] | 100% | 100% | 100% | 100% | 100% | 100% | 100% | 100% | 72% | 96% | 93% | 89% | 92% | 61% | 100% | 99% | 80% | 95% | 100% | 91% | % binding compared to no inhibitor control [21]: 100%; % binding compared to no inhibitor control [22]: 98%; % binding compared to no inhibitor control [23]: 87%; % binding compared to no inhibitor control [24]: 100%; % binding compared to no inhibitor control [25]: 100%; % binding compared to no inhibitor control [26]: 100%; % binding compared to no inhibitor control [27]: 100%; % binding compared to no inhibitor control [28]: 100%; % binding compared to no inhibitor control [29]: 99%; % binding compared to no inhibitor control [30]: 25%; % binding compared to no inhibitor control [31]: 13%; % binding compared to no inhibitor control [32]: 86%; % binding compared to no inhibitor control [33]: 60%; % binding compared to no inhibitor control [34]: 47%; % binding compared to no inhibitor control [35]: 100%; % binding compared to no inhibitor control [36]: 100%; % binding compared to no inhibitor control [37]: 82%; % binding compared to no inhibitor control [38]: 96% |
| COc1ccc(-c2cc3nccn3c(Nc3ncccc3C(N)=O)n2)cc1OC.Cl.Cl [BAY61-3606, 2-[7-(3,4-dimethoxyphenyl)-imidazo [1,2-c]pyrimidin-5-ylamino] nicotinamide dihydrochloride, reference compound] | 79% | 94% | 70% | 97% | 15% | 55% | 53% | 81% | 86% | 63% | 19% | 32% | 96% | 100% | 100% | 68% | 100% | 69% | 39% | 93% | % binding compared to no inhibitor control [21]: 39%; % inhibition ATP binding ([21]; GSK3β, KINOMEscan, 1 μM): 61%; % binding compared to no inhibitor control [22]: 69%; % binding compared to no inhibitor control [23]: 46%; % binding compared to no inhibitor control [24]: 100%; % binding compared to no inhibitor control [25]: 87%; % binding compared to no inhibitor control [26]: 100%; % binding compared to no inhibitor control [27]: 9%; % binding compared to no inhibitor control [28]: 71%; % binding compared to no inhibitor control [29]: 60%; % binding compared to no inhibitor control [30]: 99%; % binding compared to no inhibitor control [31]: 90%; % binding compared to no inhibitor control [32]: 60%; % binding compared to no inhibitor control [33]: 1.8%; % binding compared to no inhibitor control [34]: 30%; % binding compared to no inhibitor control [35]: 100%; % binding compared to no inhibitor control [36]: 60%; % binding compared to no inhibitor control [37]: 53%; % binding compared to no inhibitor control [38]: 33% |
